According to publication PMC4450297, “Screening Active Compounds from Garcinia Species Native to China Reveals Novel Compounds Targeting the STAT/JAK Signaling Pathway” (BioMed Research International, 2015):

Legend:
Assay in all cases: Cell panel screen (CellTiter-Glo)
Assay type in all cases: cell-based, human
A498 = A498 (listed under Lung), 20 micromolar, 72 hrs
Method in brief: (§1)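 ATCC lines in supplier media with 10% FBS, seeded and cultured overnight at 37° C., then exposed to compound at 20 μM final for 72 h. CellTiter-Glo luminescence; % growth inhibition relative to DMSO-treated controls after subtracting cell-free background.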

A704 = A704 (Kidney), 20 micromolar, 72 hrs
Method in brief: as §1

BT-474 = BT-474 (Breast), 20 micromolar, 72 hrs
Method in brief: as §1

BT-549 = BT-549 (Breast), 20 micromolar, 72 hrs
Method in brief: as §1

Bel-7402 = Bel-7402 (Liver), 20 micromolar, 72 hrs
Method in brief: as §1

C3A = C3A (Liver), 20 micromolar, 72 hrs
Method in brief: as §1

C8166 = C8166 (Leukemia), 20 micromolar, 72 hrs
Method in brief: as §1

CCF-STTG1 = CCF-STTG1 (Brain), 20 micromolar, 72 hrs
Method in brief: as §1

CW-2 = CW-2 (Colon), 20 micromolar, 72 hrs
Method in brief: as §1

ChaGo-K-1 = ChaGo-K-1 (Lung), 20 micromolar, 72 hrs
Method in brief: as §1

Colo 205 = conditions: Colo 205, 20 micromolar, 72 hrs
Method in brief: as §1

HCC1395 = HCC1395 (Breast), 20 micromolar, 72 hrs
Method in brief: as §1

HCC1569 = HCC1569 (Breast), 20 micromolar, 72 hrs
Method in brief: as §1

HCC1599 = HCC1599 (Breast), 20 micromolar, 72 hrs
Method in brief: as §1

HCC1937 = HCC1937 (Breast), 20 micromolar, 72 hrs
Method in brief: as §1

HEC-1-A = HEC-1-A (Uterus), 20 micromolar, 72 hrs
Method in brief: as §1

HGC-27 = HGC-27 (Stomach), 20 micromolar, 72 hrs
Method in brief: as §1

HPAF-II = HPAF-II (Pancreas), 20 micromolar, 72 hrs
Method in brief: as §1

HT-1197 = HT-1197 (Urinary bladder), 20 micromolar, 72 hrs
Method in brief: as §1

J82 = J82 (Urinary bladder), 20 micromolar, 72 hrs
Method in brief: as §1

M059J = M059J (Brain), 20 micromolar, 72 hrs
Method in brief: as §1

MSTO-211-H = MSTO-211-H (Lung), 20 micromolar, 72 hrs
Method in brief: as §1

NCI-H1623 = NCI-H1623 (Lung), 20 micromolar, 72 hrs
Method in brief: as §1

NCI-H1694 = NCI-H1694 (Lung), 20 micromolar, 72 hrs
Method in brief: as §1

NCI-H1770 = NCI-H1770 (Lung), 20 micromolar, 72 hrs
Method in brief: as §1

NCI-H2347 = NCI-H2347 (Lung), 20 micromolar, 72 hrs
Method in brief: as §1

NCI-H2405 = NCI-H2405 (Lung), 20 micromolar, 72 hrs
Method in brief: as §1

NCI-H28 = NCI-H28 (Lung), 20 micromolar, 72 hrs
Method in brief: as §1

NCI-H524 = NCI-H524 (Lung), 20 micromolar, 72 hrs
Method in brief: as §1

Panc 03.27 = Panc 03.27 (Pancreas), 20 micromolar, 72 hrs
Method in brief: as §1

RL95 = RL95 (Uterus), 20 micromolar, 72 hrs
Method in brief: as §1

SW13 = SW13 (Adrenal gland), 20 micromolar, 72 hrs
Method in brief: as §1

T47D = T47D (Breast), 20 micromolar, 72 hrs
Method in brief: as §1

T98G = T98G (Brain), 20 micromolar, 72 hrs
Method in brief: as §1

TCCSUP = TCCSUP (Urinary bladder), 20 micromolar, 72 hrs
Method in brief: as §1

ZR-75-30 = ZR-75-30 (Breast), 20 micromolar, 72 hrs
Method in brief: as §1

O=C1CC(c2ccc(O)c(O)c2)Oc2cc(OC3OC(C(=O)O)C(O)C(O)C3O)cc(O)c21 (stereo not drawn) [gly-2]
Percent Inhibition (A498): -7% | Percent Inhibition (A704): -14% | Percent Inhibition (BT-474): -18% | Percent Inhibition (BT-549): -14% | Percent Inhibition (Bel-7402): -14% | Percent Inhibition (C3A): -5% | Percent Inhibition (C8166): -12% | Percent Inhibition (CCF-STTG1): 1% | Percent Inhibition (CW-2): -2% | Percent Inhibition (ChaGo-K-1): -33% | Percent Inhibition (Colo 205): -6% | Percent Inhibition (HCC1395): 8% | Percent Inhibition (HCC1569): -6% | Percent Inhibition (HCC1599): -8% | Percent Inhibition (HCC1937): -2% | Percent Inhibition (HEC-1-A): -19% | Percent Inhibition (HGC-27): 0% | Percent Inhibition (HPAF-II): -1% | Percent Inhibition (HT-1197): -8% | Percent Inhibition (J82): -6% | Percent Inhibition (M059J): -1% | Percent Inhibition (MSTO-211-H): 7% | Percent Inhibition (NCI-H1623): 6% | Percent Inhibition (NCI-H1694): -10% | Percent Inhibition (NCI-H1770): -4% | Percent Inhibition (NCI-H2347): -2% | Percent Inhibition (NCI-H2405): -2% | Percent Inhibition (NCI-H28): -21% | Percent Inhibition (NCI-H524): -15% | Percent Inhibition (Panc 03.27): 2% | Percent Inhibition (RL95): 2% | Percent Inhibition (SW13): -14% | Percent Inhibition (T47D): -2% | Percent Inhibition (T98G): -3% | Percent Inhibition (TCCSUP): -4% | Percent Inhibition (ZR-75-30): 15%

CCOC(=O)C1OC(Oc2cc(O)c3c(c2)OC(c2ccc(O)c(O)c2)CC3=O)C(O)C(O)C1O (stereo not drawn) [gly-3]
Percent Inhibition (A498): -4% | Percent Inhibition (A704): -17% | Percent Inhibition (BT-474): -24% | Percent Inhibition (BT-549): -14% | Percent Inhibition (Bel-7402): -5% | Percent Inhibition (C3A): -4% | Percent Inhibition (C8166): -1% | Percent Inhibition (CCF-STTG1): -4% | Percent Inhibition (CW-2): 4% | Percent Inhibition (ChaGo-K-1): -13% | Percent Inhibition (Colo 205): -6% | Percent Inhibition (HCC1395): 9% | Percent Inhibition (HCC1569): -8% | Percent Inhibition (HCC1599): -18% | Percent Inhibition (HCC1937): 3% | Percent Inhibition (HEC-1-A): -19% | Percent Inhibition (HGC-27): -11% | Percent Inhibition (HPAF-II): -7% | Percent Inhibition (HT-1197): 11% | Percent Inhibition (J82): -7% | Percent Inhibition (M059J): 1% | Percent Inhibition (MSTO-211-H): -3% | Percent Inhibition (NCI-H1623): 8% | Percent Inhibition (NCI-H1694): 1% | Percent Inhibition (NCI-H1770): -10% | Percent Inhibition (NCI-H2347): 4% | Percent Inhibition (NCI-H2405): -3% | Percent Inhibition (NCI-H28): -18% | Percent Inhibition (NCI-H524): -25% | Percent Inhibition (Panc 03.27): 2% | Percent Inhibition (RL95): 6% | Percent Inhibition (SW13): -5% | Percent Inhibition (T47D): -4% | Percent Inhibition (T98G): -3% | Percent Inhibition (TCCSUP): -1% | Percent Inhibition (ZR-75-30): 13%

COC(=O)C1OC(Oc2cc(O)c3c(c2)OC(c2ccc(O)c(O)c2)CC3=O)C(O)C(O)C1O (stereo not drawn) [gly-5]
Percent Inhibition (A498): -12% | Percent Inhibition (A704): -7% | Percent Inhibition (BT-474): -15% | Percent Inhibition (BT-549): -12% | Percent Inhibition (Bel-7402): -8% | Percent Inhibition (C3A): -1% | Percent Inhibition (C8166): -5% | Percent Inhibition (CCF-STTG1): 8% | Percent Inhibition (CW-2): 1% | Percent Inhibition (ChaGo-K-1): -10% | Percent Inhibition (Colo 205): -4% | Percent Inhibition (HCC1395): 11% | Percent Inhibition (HCC1569): -7% | Percent Inhibition (HCC1599): -41% | Percent Inhibition (HCC1937): 1% | Percent Inhibition (HEC-1-A): -16% | Percent Inhibition (HGC-27): -2% | Percent Inhibition (HPAF-II): -7% | Percent Inhibition (HT-1197): 0% | Percent Inhibition (J82): -8% | Percent Inhibition (M059J): 6% | Percent Inhibition (MSTO-211-H): -6% | Percent Inhibition (NCI-H1623): 7% | Percent Inhibition (NCI-H1694): -2% | Percent Inhibition (NCI-H1770): -6% | Percent Inhibition (NCI-H2347): 1% | Percent Inhibition (NCI-H2405): 5% | Percent Inhibition (NCI-H28): -17% | Percent Inhibition (NCI-H524): -5% | Percent Inhibition (Panc 03.27): 3% | Percent Inhibition (RL95): 6% | Percent Inhibition (SW13): -6% | Percent Inhibition (T47D): 2% | Percent Inhibition (T98G): 0% | Percent Inhibition (TCCSUP): -11% | Percent Inhibition (ZR-75-30): 7%
